Columns and labels:
Experiment in all cases: relative viability (nuclei count vs DMSO), 5 days (fraction); higher = more cells survive
AGI-6780 + Phenformin = compound: O=C(Nc1cccc(C(F)(F)F)c1)Nc1cc(S(=O)(=O)NC2CC2)ccc1-c1ccsc1 [AGI-6780] + N=C(N)NC(=N)NCCc1ccccc1 [Phenformin] (partner 250 µM)
Method in brief: (§1)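 The day after seeding in 1536-well plates, lung cancer cell lines were treated by pin tool with a single drug, or with a fixed anchor-drug dose together with five library-drug doses (not always all listed) in √10 steps. After 5 days, a combined fix-and-stain solution (final 0.05% Triton X-100, 1% formaldehyde, 1 ug/ml Hoechst) was added. Nuclei counted on 4× images gave relative viability as treated counts over vehicle counts, reported as the median of duplicate plates.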

AGI-6780 + Olaparib = compound: O=C(Nc1cccc(C(F)(F)F)c1)Nc1cc(S(=O)(=O)NC2CC2)ccc1-c1ccsc1 [AGI-6780] + O=C(c1cc(Cc2n[nH]c(=O)c3ccccc23)ccc1F)N1CCN(C(=O)C2CC2)CC1 [Olaparib] (partner 8 µM)
Method in brief: as §1

AGI-6780 + Trametinib = compound: O=C(Nc1cccc(C(F)(F)F)c1)Nc1cc(S(=O)(=O)NC2CC2)ccc1-c1ccsc1 [AGI-6780] + CC(=O)Nc1cccc(-n2c(=O)n(C3CC3)c(=O)c3c(Nc4ccc(I)cc4F)n(C)c(=O)c(C)c32)c1 [Trametinib] (partner 0.02 µM)
Method in brief: as §1

AGI-6780 = compound: O=C(Nc1cccc(C(F)(F)F)c1)Nc1cc(S(=O)(=O)NC2CC2)ccc1-c1ccsc1 [AGI-6780]
Method in brief: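 Viability is treated-well nuclei as a fraction of vehicle-well nuclei, reported as the median across plates. Before counting, lung cancer cell lines were kept overnight at 37 °C in 1536-well plates, pinned with five √10-spaced library-drug doses on vehicle-anchored plates, and left 5 days without medium change, then fixed, permeabilised and Hoechst-stained in one step, imaged at 4× and counted by MetaXpress. A plate passed only if control CV was below 25% and at least one doubling occurred.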

Cell Line | relative viability (AGI-6780 + Phenformin; first compound 0.08 µM) | relative viability (AGI-6780 + Phenformin; first compound 0.253 µM) | relative viability (AGI-6780 + Phenformin; first compound 0.8 µM) | relative viability (AGI-6780 + Phenformin; first compound 2.53 µM) | relative viability (AGI-6780 + Phenformin; first compound 8 µM) | relative viability (AGI-6780 + Olaparib; first compound 0.08 µM) | relative viability (AGI-6780 + Olaparib; first compound 0.253 µM) | relative viability (AGI-6780 + Olaparib; first compound 0.8 µM) | relative viability (AGI-6780 + Olaparib; first compound 2.53 µM) | relative viability (AGI-6780 + Olaparib; first compound 8 µM) | relative viability (AGI-6780 + Trametinib; first compound 0.08 µM) | relative viability (AGI-6780 + Trametinib; first compound 0.253 µM) | relative viability (AGI-6780 + Trametinib; first compound 0.8 µM) | relative viability (AGI-6780 + Trametinib; first compound 2.53 µM) | relative viability (AGI-6780 + Trametinib; first compound 8 µM) | relative viability (AGI-6780; 0.08 µM) | relative viability (AGI-6780; 0.253 µM) | relative viability (AGI-6780; 0.8 µM) | relative viability (AGI-6780; 2.53 µM) | relative viability (AGI-6780; 8 µM)
LCLC-97TM1 | 0.402 | 0.409 | 0.419 | 0.439 | 0.436 | 0.41 | 0.532 | 0.394 | 0.264 | 0.378 | 0.173 | 0.21 | 0.152 | 0.159 | 0.197 | 0.959 | 0.983 | 1.03 | 0.758 | 0.966
LU99A | 0.866 | 0.747 | 0.815 | 0.773 | 0.79 | 0.255 | 0.289 | 0.178 | 0.243 | 0.287 | 0.547 | 0.572 | 0.431 | 0.44 | 0.534 | 0.975 | 0.928 | 0.987 | 0.839 | 0.931
NCI-H1651 | 0.331 | 0.362 | 0.394 | 0.335 | 0.37 | 0.187 | 0.181 | 0.169 | 0.169 | 0.18 | 0.816 | 0.82 | 0.833 | 0.73 | 0.839 | 1.03 | 1.04 | 0.957 | 0.921 | 1.02
NCI-H322M | 0.755 | 0.788 | 0.816 | 0.808 | 0.85 | – | 0.773 | 0.744 | 0.747 | 0.874 | – | 0.525 | 0.525 | 0.547 | 0.499 | 0.896 | 0.927 | 1.07 | 0.922 | 0.965
SK-LU-1 | 0.549 | 0.555 | – | 0.404 | 0.588 | 0.506 | 0.482 | 0.349 | 0.402 | 0.456 | 0.614 | 0.537 | 0.368 | 0.651 | 0.497 | 1.05 | 1.04 | 0.777 | 0.945 | 1.19
ChaGo-K-1 | 0.494 | 0.562 | 0.503 | 0.452 | 0.543 | 0.437 | 0.457 | 0.377 | 0.411 | 0.422 | 0.876 | 0.799 | 0.888 | 0.815 | 0.871 | 1.01 | 1.02 | 1.06 | 0.921 | 1
NCI-H1666 | 0.51 | 0.573 | 0.534 | 0.554 | 0.618 | 0.703 | 0.714 | 0.734 | 0.766 | 0.75 | 0.936 | 0.885 | 0.836 | 0.776 | 0.93 | 1 | 0.974 | 0.981 | 0.843 | 1.06
NCI-H2126 | 0.543 | 0.568 | 0.539 | 0.526 | 0.539 | 0.981 | 0.895 | 0.914 | 0.84 | 0.959 | 0.613 | 0.601 | 0.507 | 0.479 | 0.566 | 1.06 | 1.07 | 0.981 | 0.796 | 1.08

— the supplement of paper PMC10307832
